The assay deals with T1, human A2B adenosine receptors (Homo sapiens, UniProt P29275).
T1 sequence (P29275 1-332): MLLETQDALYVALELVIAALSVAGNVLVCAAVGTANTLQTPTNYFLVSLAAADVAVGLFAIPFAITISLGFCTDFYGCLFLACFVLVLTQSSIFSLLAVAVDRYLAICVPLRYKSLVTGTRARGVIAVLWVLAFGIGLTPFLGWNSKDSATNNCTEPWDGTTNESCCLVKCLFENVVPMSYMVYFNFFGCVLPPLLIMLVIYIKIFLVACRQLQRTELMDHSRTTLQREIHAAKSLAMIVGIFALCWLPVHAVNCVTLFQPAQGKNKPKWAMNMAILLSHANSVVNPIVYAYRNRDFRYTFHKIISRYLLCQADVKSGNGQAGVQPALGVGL
As to the kind of experiment: Radioligand competitive binding, ADENOSINE A2B (HEK293), [3H]-DPCPX (Table 8). The settings on record: [3H]-DPCPX 30-40 nM. Set-up: purchased Receptor Biology; host or cells: HEK 293. Here is the method: Membranes (50 μg membrane protein), radioligands, and varying concentrations of competing ligands were incubated in triplicate in 0.1 mL buffer HE plus 2 units/mL adehosine, deaminase for 2 hours at 21° C. The radioligand used for competitive binding assays for human A2B adenosine receptors was [^3H]-8-cyclopentyl-1,3-dipropyxanthine ([^3H]-DPCPX, 30-40 nM) (NEN, Boston, Mass.). Nonspecific binding was measured in the presence of 10 μM 5′N-ethylcarboxamidoadenosine (NECA; from RBI-Sigma, Natick, Mass.). Binding assays were terminated by filtration over Whatman GF/C glass fiber filters using a BRANDEL cell harvester (Gaithersburg, Md.). The filters were rinsed three times with 3 to 4 mL ice-cold 10 mM Tris-HCl, pH 7.4 and 5 mM magnesium chloride (MgCl2) at 4° C. and were counted in a Wallac β-counter (Perkin Elmer, Boston, Mass.).
Competitive binding data were fit to a single site binding model and plotted using Prizm GraphPad. The Cheng-Prusoff equation KI=IC50/(1+[I]/KD) was used to calculate KI values from IC50 values, where KI is the affinity constant for the competing ligand, [I] is the concentration of the free radioligand, and KD is the affinity constant for the radioligand (Cheng and Prusoff 1973).

Consider `CCCn1c(=O)c2[nH]c(C3C4CC5C(C4CCCN(C)C)C53)nc2n(CCC)c1=O` (stereo not drawn) [Compound 1], for which the Ki (as a rule, the equilibrium dissociation constant of an inhibitor or competing ligand from its target) is 14.6 nM.
Turning to `CCCn1c(=O)c2[nH]c(C34CCC(OCC(=O)O)(CC3)C4)nc2n(CCC)c1=O` [Compound 2], the Ki came to 15.2 nM.
`CCCn1c(=O)c2[nH]c(-c3ccc(C#N)cc3)c(O)c2n(CCC)c1=O` [Compound 3] gave an inhibitory constant (Ki) of 27 nM.
Compound `CCCn1c(=O)c2[nH]c(C34CCC(CN(C)C)(CC3)CC4)nc2n(CCN)c1=O` [Compound 4] displayed a Ki of 39 nM. The Ki values of the last two compounds are within 1.5-fold of each other.
`CCCn1c(=O)c2[nH]c(C34CCC(O[C@@H](C)C(=O)O)(CC3)CC4)nc2n(CCC)c1=O` [Compound 5] gave a Ki of 45.1 nM.
On to `CCCn1c(=O)c2[nH]c(C34CCCC(O)(CC3)CC4)nc2n(CCC)c1=O` [Compound 6], for which the Ki turned out to be 47 nM.
`CCCn1c(=O)c2[nH]c(C34CCC(CCC(=O)O)(CC3)CC4)nc2n(CCC)c1=O` [Compound 7]: the affinity, expressed as Ki, was 51.4 nM.
For `CCCn1c(=O)c2[nH]c(C34CCC(CN)(CC3)CC4)nc2n(CCC)c1=O` [Compound 8], the Ki worked out at 55.2 nM.
Compound `CCCn1c(=O)c2[nH]c(C34CCC(O)C(CC3)C4)nc2n(CCC)c1=O` (stereo not drawn) [Compound 9] returned an inhibitory constant (Ki) of 76.9 nM.
`CCCn1c(=O)c2nc(C34CCC(CCC(=O)Nc5nnn[nH]5)(CC3)CC4)[nH]c2n(CCC)c1=O` [Compound 10] gave a Ki of 85.6 nM.
For `CCCn1c(=O)c2[nH]c(C3CC4CCC(C3)C4NCC(=O)OCC)nc2n(CCC)c1=O` (stereo not drawn) [Compound 11], the affinity corresponds to a Ki of 93 nM.
The compound `CCCn1c(=O)c2[nH]c(C34CCC(/C=C/C(=O)O)(CC3)CC4)nc2n(CCC)c1=O` [Compound 12] gave an inhibitory constant (Ki) of 100 nM.
Compound `CCCn1c(=O)c2[nH]c(C34CCC(/C=C/C(=O)O)(CC3)OC4)nc2n(CCC)c1=O` [Compound 13] gave a Ki of 117 nM.
Compound `CCCn1c(=O)c2[nH]c(C34CCC(OCCC(=O)O)(CC3)C4)nc2n(CCC)c1=O` [Compound 14] displayed a Ki of 125 nM.
Consider `CCCn1c(=O)c2nc(C34CCC(CCCC(=O)O)(CC3)CC4)[nH]c2n(CCC)c1=O` [Compound 15], for which affinity was put at a Ki of 127 nM. This Ki and that of the compound before are within 1.5-fold of each other.
Turning to `CCCn1c(=O)c2nc(C34CCC(C5=NOC(C(=O)O)C5)(CC3)CC4)[nH]c2n(CCC)c1=O` (stereo not drawn) [Compound 16], the Ki was 131 nM.
As to `CCCn1c(=O)c2[nH]c(C34CCC(CCc5nnn[nH]5)(CC3)CC4)nc2n(CCC)c1=O` [Compound 17], the Ki was 160 nM.
Turning to `CCCn1c(=O)c2[nH]c(C34CCCC(OCC(=O)O)(CC3)CC4)nc2n(CCC)c1=O` [Compound 18], affinity was put at a Ki of 168 nM.

The values above are taken from patent publication US20050203065A1, “Method of treating ischemia reperfusion injury using adenosine receptor antagonists” (priority 2002, published 2005).
